Reference: patent US6649654B1, “Methods for identifying and using IKK inhibitors” (The Regents of the University of California, priority 1999, dated 2003)
Entries after “also recorded” stand apart in the source; their conditions may differ. Where two headings read alike, the source gives them in different places.

What was measured:
NF-κB = NF-κB activation / DNA-binding activity by EMSA in stimulated HeLa cells; type: cell-based, human; conditions: for effect on NF-κB activation: HeLa cells stimulated with TNFα (PGA1: IL-1 or TNFα); for IC50: Homo sapiens, HeLa cells
Protocol: Cells used in the experiments described herein were cultured in either RPMI 1640 (Jurkat cells) or DMEM (HeLa and COS cells), supplemented with 10% FBS and antibiotics. Cells were stimulated with either 25 ng/ml TPA, 20 ng/ml recombinant TNFα, or 10 ng/ml interleukin 1β (Sigma). PGA1, 15dPGJ2, T×B2, LTB4, AA and other PGs (Cayman) dissolved in ethanol were used as well, as known in the art (See e.g., Rossi et al., 94:746-750 [1997]). Controls received equal amounts of ethanol. Transfections were performed using Lipofectamine Plus (GIBCO) for HeLa and COS cells and DEAE-dextran (Sigma) for Jurkat cells. Xpress-tagged NIK, Xpress-tagged MEKK1, HA-tagged IKKα, and HA-tagged IKKβ were also used (See e.g., Zandi et al., Science 281:1360-1363 [1998]; and Delhase et al., Science 284:309-313 [1999]). COX2 and cPLA2 expression vectors were obtained from Dr. L. Feng (See also, Hirose et al., J. Am. Soc. Nephrol., 9:408-416 [1998]). PGD synthase was cloned from HT29 colon carcinoma cell line cDNA by PCR and subcloned into a pCDNA3 vector. Cells were lysed in buffer B (50 mM Tris-HCl, pH 7.5, 400 mM NaCl, 1 mM EDTA, 1 mM EGTA, 1% Triton, 0.5% NP-40, 10% glycerol, and supplemented with 20 mM β-glycerophosphate, 10 mM PNPP, […] 1 mM PMSF, 20 μg/ml aprotinin, 2.5 μg/ml leupeptin, 8.3 μg/ml bestatin, 1.7 μg/ml pepstatin, and 2 mM DTT).
Aliquots of total extracts (15 μg protein) in buffer B were incubated with a ^32P-labeled κB DNA, followed by analysis of DNA-binding activities by EMSA on 4% PAGE gels, as known in the art (See, Rossi et al., supra). Specificity of protein-DNA complexes was verified by supershift with polyclonal antibodies specific for p65 (Rel A).

Oct1 = target: T1, Oct1 (Homo sapiens, UniProt P14859); test: Oct1 DNA binding activity; type: cell-based
T1 construct: endogenous in cells; host or cells: Jurkat (PGA1); cells of the 15dPGJ2 experiment not clearly stated
T1 sequence (P14859 1-743): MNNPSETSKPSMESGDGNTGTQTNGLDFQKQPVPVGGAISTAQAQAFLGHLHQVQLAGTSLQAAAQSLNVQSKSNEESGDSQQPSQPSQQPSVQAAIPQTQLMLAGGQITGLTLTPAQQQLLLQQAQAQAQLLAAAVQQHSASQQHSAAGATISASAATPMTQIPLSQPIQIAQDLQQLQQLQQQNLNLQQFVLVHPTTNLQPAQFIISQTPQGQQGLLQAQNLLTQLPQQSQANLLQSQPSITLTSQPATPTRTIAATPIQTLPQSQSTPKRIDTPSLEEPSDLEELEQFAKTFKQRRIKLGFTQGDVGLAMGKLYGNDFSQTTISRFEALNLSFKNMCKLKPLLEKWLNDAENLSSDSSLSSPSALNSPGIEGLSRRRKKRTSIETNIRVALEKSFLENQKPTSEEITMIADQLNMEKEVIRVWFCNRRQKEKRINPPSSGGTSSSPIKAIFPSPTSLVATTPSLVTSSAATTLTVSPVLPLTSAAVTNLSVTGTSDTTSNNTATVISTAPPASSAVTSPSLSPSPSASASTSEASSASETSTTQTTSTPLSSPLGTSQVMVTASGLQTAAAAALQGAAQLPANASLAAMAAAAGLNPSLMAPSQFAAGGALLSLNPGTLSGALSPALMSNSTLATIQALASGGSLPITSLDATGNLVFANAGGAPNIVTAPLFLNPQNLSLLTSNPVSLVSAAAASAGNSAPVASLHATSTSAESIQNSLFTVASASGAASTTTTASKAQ

Sp1 = target: T2, Sp1 (Homo sapiens, UniProt P08047); test: Sp1 DNA binding activity; type: cell-based
T2 construct: endogenous in cells; host or cells: Jurkat (PGA1); cells of the 15dPGJ2 experiment not clearly stated
T2 sequence (P08047 whole entry): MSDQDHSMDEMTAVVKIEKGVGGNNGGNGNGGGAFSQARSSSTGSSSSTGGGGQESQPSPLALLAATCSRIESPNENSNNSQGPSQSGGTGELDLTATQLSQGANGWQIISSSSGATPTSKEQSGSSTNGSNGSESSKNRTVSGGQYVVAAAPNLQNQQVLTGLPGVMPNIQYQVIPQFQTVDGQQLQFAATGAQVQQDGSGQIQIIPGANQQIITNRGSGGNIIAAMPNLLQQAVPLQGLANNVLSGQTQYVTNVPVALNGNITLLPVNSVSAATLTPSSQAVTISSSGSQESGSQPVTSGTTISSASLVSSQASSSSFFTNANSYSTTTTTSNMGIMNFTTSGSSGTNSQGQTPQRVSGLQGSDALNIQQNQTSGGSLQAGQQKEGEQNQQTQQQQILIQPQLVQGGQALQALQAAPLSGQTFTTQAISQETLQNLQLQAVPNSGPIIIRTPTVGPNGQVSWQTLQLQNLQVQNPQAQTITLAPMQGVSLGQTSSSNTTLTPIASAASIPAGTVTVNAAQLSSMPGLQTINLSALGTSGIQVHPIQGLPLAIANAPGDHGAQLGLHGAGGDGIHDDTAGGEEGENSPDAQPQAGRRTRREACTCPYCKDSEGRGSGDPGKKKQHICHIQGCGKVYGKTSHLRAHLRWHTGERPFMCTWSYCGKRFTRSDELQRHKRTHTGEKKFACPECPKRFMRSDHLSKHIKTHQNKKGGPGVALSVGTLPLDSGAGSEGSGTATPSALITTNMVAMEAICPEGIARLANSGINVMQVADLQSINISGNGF

IKKβ(C179A) = target: T3, IKKβ(C179A) (Homo sapiens, UniProt O14920, C179A); test: Recombinant IKKβ(C179A) (Sf9) kinase activity; type: biochemical; parameters: FLAG; made in house; host or cells: Sf9 (baculovirus); conditions: FIG. 6D; PGA1 data not shown
T3 sequence (O14920 1-756 C179A): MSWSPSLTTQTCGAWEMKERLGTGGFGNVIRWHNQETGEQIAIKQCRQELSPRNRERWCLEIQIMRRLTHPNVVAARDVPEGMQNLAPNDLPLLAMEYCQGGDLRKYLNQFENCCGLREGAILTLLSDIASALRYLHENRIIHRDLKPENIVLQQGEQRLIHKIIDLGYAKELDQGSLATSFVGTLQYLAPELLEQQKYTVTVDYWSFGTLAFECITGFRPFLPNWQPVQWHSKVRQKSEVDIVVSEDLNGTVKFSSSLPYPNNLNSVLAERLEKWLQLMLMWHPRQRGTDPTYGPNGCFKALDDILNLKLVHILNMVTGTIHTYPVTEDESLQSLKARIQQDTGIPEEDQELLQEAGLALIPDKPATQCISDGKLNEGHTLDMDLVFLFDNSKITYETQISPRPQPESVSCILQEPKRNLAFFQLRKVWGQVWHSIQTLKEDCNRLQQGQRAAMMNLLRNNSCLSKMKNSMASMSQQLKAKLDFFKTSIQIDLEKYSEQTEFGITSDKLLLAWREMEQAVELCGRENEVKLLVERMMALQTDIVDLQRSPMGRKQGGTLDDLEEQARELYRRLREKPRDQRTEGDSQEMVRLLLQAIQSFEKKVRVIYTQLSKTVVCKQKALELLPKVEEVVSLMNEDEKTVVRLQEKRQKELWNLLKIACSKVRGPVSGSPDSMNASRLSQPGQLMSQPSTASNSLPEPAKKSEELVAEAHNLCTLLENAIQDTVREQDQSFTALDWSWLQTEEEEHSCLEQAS
Protocol: In addition, recombinant IKKβ was expressed in Sf9 cells and purified as described (Zandi et al., supra). AA, PGs, LTB4, and T×B2 were added to washed imnmunoprecipitates of recombinant IKKβ in kinase buffer to a final volume of 500 μl. After 1.5 hours at 4° C., the immunoprecipitates were washed and the kinase activity determined. Western blot analysis was also performed as known in the art (See e.g., Rossi et al., supra).

IC50 (NF-κB; TNFα, read-out: IC50 for inhibition of NF-κB DNA binding activity) | IC50 (NF-κB; TNFα, read-out: IC50 for inhibition of NF-κB DNA-binding activity) | effect on Oct1 DNA-binding activity (Oct1; 15dPGJ2, data not shown) | effect on Sp1 DNA-binding activity (Sp1; 15dPGJ2, data not shown) | sensitivity of recombinant IKKβ(C179A) (IKKβ(C179A)) | IC50 (NF-κB; read-out: IC50 towards NF-κB) | IC50 (NF-κB; read-out: half-maximal inhibition towards NF-κB) | Compound | effect on NF-κB activation (NF-κB) | effect on Oct1 DNA binding (Oct1; PGA1 (120 μM), FIG. 1A) | effect on Sp1 DNA binding (Sp1; PGA1 (120 μM), FIG. 1A)
2.25 µM | 2.25 µM | did not inhibit | did not inhibit | resistant | – | – | CCCCC/C=C/C=C1/C(=O)C=C[C@@H]1C/C=C\CCCC(=O)O [15dPGJ2, 15-deoxy-Δ^12-14-PGJ2] | inhibited | – | –
– | – | – | – | resistant | 65 µM | 65 µM | CCCCC[C@H](O)/C=C/[C@H]1C=CC(=O)C1CCCCCCC(=O)O (stereo partly drawn) [PGA1, prostaglandin A1] | prevented | did not inhibit; also recorded: No effects | did not inhibit; also recorded: No effects
